Results published in PubChem BioAssay AID2060903 (Molecular Pharmacology Branch, DTP, NCI, 2025).
pIC50: −log10 of the molar value.

Tested on: 377384-186-R-J1-PDC complex spheroid viability
Experiment: Anticancer human tumor 377384-186-R-J1-PDC patient-derived pancreatic carcinoma cell line growth inhibition [RAS]
Conditions: for pIC50: curve of first compound; for viability, T/C: stronger effect = lower value; active = viability on the fitted dose curve at most 10% of control; inactive = the rest
Summary of the method: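 Multi-cell-type spheroids: tumor cells plus HUVEC endothelial cells and mesenchymal stem cells. RAS-pathway inhibitors were combined with targeted agents, each dosed in half-log steps down from clinical Cmax, or from 10 microM when Cmax was unknown.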

[1] = second compound 0.00316 µM, first compound 0.0316 µM
[2] = second compound 0.00316 µM, first compound 0.1 µM
[3] = second compound 0.00316 µM, first compound 0.316 µM
[4] = second compound 0.00316 µM, first compound 1 µM
[5] = second compound 0.01 µM, first compound 0.0316 µM
[6] = second compound 0.01 µM, first compound 0.1 µM
[7] = second compound 0.01 µM, first compound 0.316 µM
[8] = second compound 0.01 µM, first compound 1 µM
[9] = second compound 0.0316 µM, first compound 0.0316 µM
[10] = second compound 0.0316 µM, first compound 0.1 µM
[11] = second compound 0.0316 µM, first compound 0.316 µM
[12] = second compound 0.0316 µM, first compound 1 µM
[13] = second compound 0.1 µM, first compound 0.0316 µM
[14] = second compound 0.1 µM, first compound 0.1 µM
[15] = second compound 0.1 µM, first compound 0.316 µM
[16] = second compound 0.1 µM, first compound 1 µM
[17] = second compound 0.316 µM, first compound 0.0316 µM
[18] = second compound 0.316 µM, first compound 0.1 µM
[19] = second compound 0.316 µM, first compound 0.316 µM
[20] = second compound 0.316 µM, first compound 1 µM
[21] = second compound 1 µM, first compound 0.0316 µM
[22] = second compound 1 µM, first compound 0.1 µM
[23] = second compound 1 µM, first compound 0.316 µM
[24] = second compound 1 µM, first compound 1 µM
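Also: spheroids exposed to compounds for seven days before readout.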

NC1c2ccccc2OC12CCN(c1cnc3c(N4CCCc5ncccc54)n[nH]c3n1)CC2 (centres undefined) + C=CC(=O)N1CCN(c2nc(OCC3CCCN3C)nc3c(F)c(-c4nc(N)cc(C)c4C(F)(F)F)c(Cl)cc23)C(C)C1
inactive: viability, T/C [1] 82.9% | viability, T/C [2] 77% | viability, T/C [3] 66.5% | viability, T/C [4] 69.1% | viability, T/C (second compound 0.00316 µM, first compound 3.16 µM) 75.6% | viability, T/C (second compound 0.00316 µM, first compound 10 µM) 68.4% | viability, T/C [5] 86.9% | viability, T/C [6] 63.1% | viability, T/C [7] 76.8% | viability, T/C [8] 71.9% | viability, T/C (second compound 0.01 µM, first compound 3.16 µM) 65.8% | viability, T/C (second compound 0.01 µM, first compound 10 µM) 63.8% | viability, T/C [9] 83.5% | viability, T/C [10] 68.8% | viability, T/C [11] 76% | viability, T/C [12] 65.7% | viability, T/C (second compound 0.0316 µM, first compound 3.16 µM) 57.7% | viability, T/C (second compound 0.0316 µM, first compound 10 µM) 66% | viability, T/C [13] 90.7% | viability, T/C [14] 70.1% | viability, T/C [15] 75.9% | viability, T/C [16] 64.5% | viability, T/C (second compound 0.1 µM, first compound 3.16 µM) 72.1% | viability, T/C (second compound 0.1 µM, first compound 10 µM) 70.7% | viability, T/C [17] 81.2% | viability, T/C [18] 70.8% | viability, T/C [19] 78.9% | viability, T/C [20] 70.3% | viability, T/C (second compound 0.316 µM, first compound 3.16 µM) 71.8% | viability, T/C (second compound 0.316 µM, first compound 10 µM) 71% | viability, T/C [21] 79.3% | viability, T/C [22] 73.3% | viability, T/C [23] 77.9% | viability, T/C [24] 73.1% | viability, T/C (second compound 1 µM, first compound 3.16 µM) 76.3% | viability, T/C (second compound 1 µM, first compound 10 µM) 68.4%
< 5.00: pIC50 (second compound 0.00316 µM) | pIC50 (second compound 0.01 µM) | pIC50 (second compound 0.0316 µM) | pIC50 (second compound 0.1 µM) | pIC50 (second compound 0.316 µM) | pIC50 (second compound 1 µM)

Nc1ccn(C2OC(CO)C(O)C2(F)F)c(=O)n1 (centres undefined) + C=CC(=O)N1CCN(c2nc(OCC3CCCN3C)nc3c(F)c(-c4nc(N)cc(C)c4C(F)(F)F)c(Cl)cc23)C(C)C1
8.15: pIC50 (second compound 0.01 µM)
8.26: pIC50 (second compound 0.1 µM)
8.18: pIC50 (second compound 0.0316 µM)
8.21: pIC50 (second compound 1 µM)
8.17: pIC50 (second compound 0.00316 µM)
8.14: pIC50 (second compound 0.316 µM)
active: viability, T/C [2] 4.72% | viability, T/C [3] 3.54% | viability, T/C [4] 2.18% | viability, T/C [6] 4.91% | viability, T/C [7] 3.97% | viability, T/C [8] 3.71% | viability, T/C [9] 9.49% | viability, T/C [10] 4.74% | viability, T/C [11] 3.22% | viability, T/C [12] 2.97% | viability, T/C [14] 3.63% | viability, T/C [15] 3.27% | viability, T/C [16] 2.81% | viability, T/C [18] 4.24% | viability, T/C [19] 3.5% | viability, T/C [20] 3.38% | viability, T/C [22] 5.53% | viability, T/C [23] 4.43% | viability, T/C [24] 4.1%
inactive: viability, T/C (second compound 0.00316 µM, first compound 0.00316 µM) 76.9% | viability, T/C (second compound 0.00316 µM, first compound 0.01 µM) 35.9% | viability, T/C [1] 11.5% | viability, T/C (second compound 0.01 µM, first compound 0.00316 µM) 81.7% | viability, T/C (second compound 0.01 µM, first compound 0.01 µM) 36.5% | viability, T/C [5] 13.4% | viability, T/C (second compound 0.0316 µM, first compound 0.00316 µM) 74% | viability, T/C (second compound 0.0316 µM, first compound 0.01 µM) 36.3% | viability, T/C (second compound 0.1 µM, first compound 0.00316 µM) 60.4% | viability, T/C (second compound 0.1 µM, first compound 0.01 µM) 38.9% | viability, T/C [13] 12% | viability, T/C (second compound 0.316 µM, first compound 0.00316 µM) 80.5% | viability, T/C (second compound 0.316 µM, first compound 0.01 µM) 38.5% | viability, T/C [17] 13.1% | viability, T/C (second compound 1 µM, first compound 0.00316 µM) 65.3% | viability, T/C (second compound 1 µM, first compound 0.01 µM) 38.8% | viability, T/C [21] 16.7%
